Reference: patent US20230085307A1, “PYRIDAZINONE COMPOUND AND HERBICIDE” (NISSAN CHEMICAL CORPORATION, priority 2019, published 2023)

What was measured:
wild oat [1] = experiment: Test Example 4: herbicidal effect by soil treatment (Table 19, symbol I); format: in vivo, wild oat (Avena fatua); settings: amount of applied herbicide 320 g/ha
Method in brief: (§1)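 Step 1: sow seeds in sterilized diluvial soil, cover ~1.5 cm. Step 2: spray diluted emulsion onto soil surface at predetermined rate. Step 3: greenhouse, 25–30° C, three weeks. Step 4: grade effect on each plant by earlier criteria.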

Italian ryegrass [2] = experiment: Test Example 4: herbicidal effect by soil treatment (Table 19, symbol K); format: in vivo, Italian ryegrass (Lolium multiflorum); settings: amount of applied herbicide 320 g/ha
Method in brief: as §1

lambsquarters [3] = experiment: Test Example 4: herbicidal effect by soil treatment (Table 19, symbol O); format: in vivo, lambsquarters (Chenopodium album); settings: amount of applied herbicide 320 g/ha
Method in brief: as §1

barnyard grass [4] = experiment: Test Example 5: herbicidal effect by foliage application, plastic box (Table 20, symbol H); format: in vivo, barnyard grass (Echinochloa crus-galli); settings: foliage application, 320 g/ha, three weeks after application
Method in brief: (§2)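 Foliar spray test: emulsion formulation diluted in water to a set application rate, sprayed onto 14-day-old plants raised in diluvial soil at 25° C to 30° C under glass. Both herbicidal effect and crop effect rated visually three weeks later.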

persian speedwell [5] = experiment: Test Example 5: herbicidal effect by foliage application, plastic box (Table 20, symbol R); format: in vivo, Persian speedwell (Veronica persica); settings: foliage application, 320 g/ha, three weeks after application
Method in brief: as §2

windgrass [6] = experiment: Test Example 5: herbicidal effect by foliage application, plastic box (Table 20, symbol L); format: in vivo, windgrass (Apera spica-venti); settings: foliage application, 320 g/ha, three weeks after application
Method in brief: as §2

Italian ryegrass [7] = experiment: Test Example 5: herbicidal effect by foliage application, plastic box (Table 20, symbol K); format: in vivo, Italian ryegrass (Lolium multiflorum); settings: foliage application, 320 g/ha, three weeks after application
Method in brief: as §2

windgrass [8] = experiment: Test Example 4: herbicidal effect by soil treatment (Table 19, symbol L); format: in vivo, windgrass (Apera spica-venti); settings: amount of applied herbicide 320 g/ha
Method in brief: as §1

chickweed [9] = experiment: Test Example 5: herbicidal effect by foliage application, plastic box (Table 20, symbol P); format: in vivo, common chickweed (Stellaria media); settings: foliage application, 320 g/ha, three weeks after application
Method in brief: as §2

redroot pigweed [10] = experiment: Test Example 5: herbicidal effect by foliage application, plastic box (Table 20, symbol N); format: in vivo, redroot pigweed (Amaranthus retroflexus); settings: foliage application, 320 g/ha, three weeks after application
Method in brief: as §2

wild oat [11] = experiment: Test Example 5: herbicidal effect by foliage application, plastic box (Table 20, symbol I); format: in vivo, wild oat (Avena fatua); settings: foliage application, 320 g/ha, three weeks after application
Method in brief: as §2

blackgrass [12] = experiment: Test Example 4: herbicidal effect by soil treatment (Table 19, symbol J); format: in vivo, blackgrass (Alopecurus myosuroides); settings: amount of applied herbicide 320 g/ha
Method in brief: as §1

rice flat sedge = experiment: Test Example 3: herbicidal effect by foliage application, Wagner pot (Table 18, symbol E); format: in vivo, rice flat sedge (Cyperus iria); settings: 320 g/ha
Method in brief: (§3)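 Plants were sown in alluvial soil held under 0.1–0.5 cm standing water and grown 14 days in a greenhouse at 25–30 °C. An emulsifiable formulation, water-diluted to the set dose, was then sprayed onto the foliage, and effects were scored three weeks later using previously defined criteria.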

chickweed [13] = experiment: Test Example 4: herbicidal effect by soil treatment (Table 19, symbol P); format: in vivo, common chickweed (Stellaria media); settings: amount of applied herbicide 320 g/ha
Method in brief: as §1

false cleavers [14] = experiment: Test Example 5: herbicidal effect by foliage application, plastic box (Table 20, symbol Q); format: in vivo, false cleavers (Galium spurium); settings: foliage application, 320 g/ha, three weeks after application
Method in brief: as §2

Chinese sprangletop = experiment: Test Example 3: herbicidal effect by foliage application, Wagner pot (Table 18, symbol D); format: in vivo, chinese sprangletop (Leptochloa chinensis); settings: 320 g/ha
Method in brief: as §3

barnyard grass [15] = experiment: Test Example 4: herbicidal effect by soil treatment (Table 19, symbol H); format: in vivo, barnyard grass (Echinochloa crus-galli); settings: amount of applied herbicide 320 g/ha
Method in brief: as §1

velvetleaf [16] = experiment: Test Example 5: herbicidal effect by foliage application, plastic box (Table 20, symbol M); format: in vivo, velvetleaf (Abutilon theophrasti); settings: foliage application, 320 g/ha, three weeks after application
Method in brief: as §2

persian speedwell [17] = experiment: Test Example 4: herbicidal effect by soil treatment (Table 19, symbol R); format: in vivo, Persian speedwell (Veronica persica); settings: amount of applied herbicide 320 g/ha
Method in brief: as §1

southern crabgrass [18] = experiment: Test Example 5: herbicidal effect by foliage application, plastic box (Table 20, symbol F); format: in vivo, southern crabgrass (Digitaria ciliaris); settings: foliage application, 320 g/ha, three weeks after application
Method in brief: as §2

blackgrass [19] = experiment: Test Example 5: herbicidal effect by foliage application, plastic box (Table 20, symbol J); format: in vivo, blackgrass (Alopecurus myosuroides); settings: foliage application, 320 g/ha, three weeks after application
Method in brief: as §2

southern crabgrass [20] = experiment: Test Example 4: herbicidal effect by soil treatment (Table 19, symbol F); format: in vivo, southern crabgrass (Digitaria ciliaris); settings: amount of applied herbicide 320 g/ha
Method in brief: as §1

false cleavers [21] = experiment: Test Example 4: herbicidal effect by soil treatment (Table 19, symbol Q); format: in vivo, false cleavers (Galium spurium); settings: amount of applied herbicide 320 g/ha
Method in brief: as §1

velvetleaf [22] = experiment: Test Example 4: herbicidal effect by soil treatment (Table 19, symbol M); format: in vivo, velvetleaf (Abutilon theophrasti); settings: amount of applied herbicide 320 g/ha
Method in brief: as §1

redroot pigweed [23] = experiment: Test Example 4: herbicidal effect by soil treatment (Table 19, symbol N); format: in vivo, redroot pigweed (Amaranthus retroflexus); settings: amount of applied herbicide 320 g/ha
Method in brief: as §1

barnyard grass [24] = experiment: Test Example 3: herbicidal effect by foliage application, Wagner pot (Table 18, symbol H); format: in vivo, barnyard grass (Echinochloa crus-galli); settings: 320 g/ha
Method in brief: as §3

lambsquarters [25] = experiment: Test Example 5: herbicidal effect by foliage application, plastic box (Table 20, symbol O); format: in vivo, lambsquarters (Chenopodium album); settings: foliage application, 320 g/ha, three weeks after application
Method in brief: as §2

green foxtail = experiment: Test Example 5: herbicidal effect by foliage application, plastic box (Table 20, symbol G); format: in vivo, green foxtail (Setaria viridis); settings: foliage application, 320 g/ha, three weeks after application
Method in brief: as §2

## CSc1ccc(-c2sc3ccccc3c2-c2c(O)c(C)nn(C)c2=O)cc1 [1-036]
Wild oat [1]
  herbicidal effect rating, I: wild oat: 0 (Herbicidal rate of 5% or less (almost no effect))
Italian ryegrass [2]
  herbicidal effect rating, K: Italian ryegrass: 5 (Herbicidal rate of 90% or more (almost completely withered))
Lambsquarters [3]
  herbicidal effect rating, O: lambsquarters: 5 (Herbicidal rate of 90% or more (almost completely withered))
Barnyard grass [4]
  herbicidal effect grade, H: barnyard grass: 4 (Herbicidal rate of 70% or more and less than 90%)
Persian speedwell [5]
  herbicidal effect grade, R: persian speedwell: 5 (Herbicidal rate of 90% or more (almost completely withered))
Windgrass [6]
  herbicidal effect grade, L: windgrass: 3 (Herbicidal rate of 40% or more and less than 70%)
Italian ryegrass [7]
  herbicidal effect grade, K: Italian ryegrass: 4 (Herbicidal rate of 70% or more and less than 90%)
Windgrass [8]
  herbicidal effect rating, L: windgrass: 0 (Herbicidal rate of 5% or less (almost no effect))
Chickweed [9]
  herbicidal effect grade, P: chickweed: 5 (Herbicidal rate of 90% or more (almost completely withered))
Redroot pigweed [10]
  herbicidal effect grade, N: redroot pigweed: 5 (Herbicidal rate of 90% or more (almost completely withered))
Wild oat [11]
  herbicidal effect grade, I: wild oat: 2 (Herbicidal rate of 20% or more and less than 40%)
Blackgrass [12]
  herbicidal effect rating, J: blackgrass: 0 (Herbicidal rate of 5% or less (almost no effect))
Rice flat sedge
  herbicidal effect on E (rice flat sedge), rating 0-5: 5 (Herbicidal rate of 90% or more (almost completely withered))
Chickweed [13]
  herbicidal effect rating, P: chickweed: 5 (Herbicidal rate of 90% or more (almost completely withered))
False cleavers [14]
  herbicidal effect grade, Q: false cleavers: 4 (Herbicidal rate of 70% or more and less than 90%)
Chinese sprangletop
  herbicidal effect on D (Chinese sprangletop), rating 0-5: 3 (Herbicidal rate of 40% or more and less than 70%)
Barnyard grass [15]
  herbicidal effect rating, H: barnyard grass: 4 (Herbicidal rate of 70% or more and less than 90%)
Velvetleaf [16]
  herbicidal effect grade, M: velvetleaf: 5 (Herbicidal rate of 90% or more (almost completely withered))
Persian speedwell [17]
  herbicidal effect rating, R: persian speedwell: 5 (Herbicidal rate of 90% or more (almost completely withered))
Southern crabgrass [18]
  herbicidal effect grade, F: southern crabgrass: 0 (Herbicidal rate of 5% or less (almost no effect))
Blackgrass [19]
  herbicidal effect grade, J: blackgrass: 4 (Herbicidal rate of 70% or more and less than 90%)
Southern crabgrass [20]
  herbicidal effect rating, F: southern crabgrass: 0 (Herbicidal rate of 5% or less (almost no effect))
False cleavers [21]
  herbicidal effect rating, Q: false cleavers: 0 (Herbicidal rate of 5% or less (almost no effect))
Velvetleaf [22]
  herbicidal effect rating, M: velvetleaf: 2 (Herbicidal rate of 20% or more and less than 40%)
Redroot pigweed [23]
  herbicidal effect rating, N: redroot pigweed: 5 (Herbicidal rate of 90% or more (almost completely withered))
Barnyard grass [24]
  herbicidal effect on H (barnyard grass), rating 0-5: 5 (Herbicidal rate of 90% or more (almost completely withered))
Lambsquarters [25]
  herbicidal effect grade, O: lambsquarters: 4 (Herbicidal rate of 70% or more and less than 90%)
Green foxtail
  herbicidal effect grade, G: green foxtail: 4 (Herbicidal rate of 70% or more and less than 90%)
